Source: patent US5658925A, “Aminobenzoic acid derivatives” (Eisai Co., Ltd., priority 1993, dated 1997)
Counter-ions that a name gives are not always drawn. Like-named read-outs stand apart in the source and are kept apart here.

How the values were obtained:
serotonin 3 = target: T1, serotonin 3 (Cavia porcellus, UniProt O70212); experiment: Antagonism against 2-methyl-serotonin-induced contraction of ileum (serotonin 3 antagonism); format: cell-based, guinea pig (Hartley male); conditions: vs 2-methylserotonin, 30 minutes with test compound, 37° C.
T1 construct: from tissue; host or cells: nonterminal ileum of Hartley male guinea pig
T1 sequence (O70212 20-490): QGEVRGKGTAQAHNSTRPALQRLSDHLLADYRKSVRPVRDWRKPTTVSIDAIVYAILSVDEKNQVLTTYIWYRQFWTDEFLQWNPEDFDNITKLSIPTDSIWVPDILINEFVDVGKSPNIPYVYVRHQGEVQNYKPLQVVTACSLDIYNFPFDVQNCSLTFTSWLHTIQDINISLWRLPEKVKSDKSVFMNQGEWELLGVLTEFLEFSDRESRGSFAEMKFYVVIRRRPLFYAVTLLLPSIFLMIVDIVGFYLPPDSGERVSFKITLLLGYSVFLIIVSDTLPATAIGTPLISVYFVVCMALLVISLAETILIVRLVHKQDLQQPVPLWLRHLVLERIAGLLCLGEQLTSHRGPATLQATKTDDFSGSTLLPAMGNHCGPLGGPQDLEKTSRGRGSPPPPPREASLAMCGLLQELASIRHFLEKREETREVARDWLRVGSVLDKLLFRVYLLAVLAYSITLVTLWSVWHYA
Method: [Experimental Example 1] Antagonism against 2-methyl-serotonin-induced contraction of ileum (serotonin 3 antagonism)
This experiment was made according to the method of Sanger et al. [see Eur. J. Pharmacol., 159, 113-124 (1989)]. The nonterminal ileum of a Hartley male guinea pig was suspended in the Krebs solution (37° C.) by applying a load of 0.5 g, and a gaseous mixture comprising 95% of oxygen and 5% of carbon dioxide was passed through the solution. The contraction of the ileum was isometrically determined. After allowing the ileum to stand for one or more hours for stabilization, a solution of a test compound was added to the solution, and after 30 minutes, 2-methylserotonin was noncumulatively added. The pA2 value was calculated from the rightward shift of the dose-response curve of the 2-methylserotonin-induced contraction caused by the test compound according to the method of Rossum et al. [see Arch. Int. Pharmacodyn. 143, 299(1963)]. BRL 24924 (Renzapride) was used as a control in this experiment.
The structural formula of BRL 24924 is as follows: [drawing 19]

[1] = tested on: gastric emptying function; experiment: Activity for increasing gastric emptying function; format: in vivo, rat (Fischer male); conditions: oral, one hour before test food, *: minimum effective dose
Method: [Experimental Example 3] Activity for increasing gastric emptying function
This experiment was made according to the method of Decktor et al. [see Eur. J. Pharmacol., 147, 313-316 (1988)]. Fischer male rats (weight: 160 to 180 g) were fasted for 18 hours before 3 ml of a test food comprising methylcellulose, beef bouillon, casein, sugar and corn starch was orally administered to each rat. One hour after the administration, the stomach was extirpated from each rat. The gastric emptying ratio was calculated from the weight of the test food remaining in the stomach. The percentage increment of the gastric emptying function was determined by comparing the gastric emptying ratio of a medicated rat with that of a control rat. Each test compound (5 ml/kg) was orally administered one hour before the administration of the test food. BRL 24924 was used as a control in this experiment.

serotonin 4 = target: T2, serotonin 4 (Rattus norvegicus, UniProt Q62758); experiment: Effect of relaxing the contraction of muscular layer of esophageal mucosa of rat by stimulation with carbachol (activity of serotonin 4 as agonist); format: cell-based
T2 construct: The esophagus of a rat was extirpated and freed from the outer tunica propria to obtain the muscular layer of mucosa; from tissue; host or cells: muscular layer of mucosa of rat esophagus
Method: This experiment was made according to the method of Baxter et al. [see Naunyn-Schmiedeberg's Arch. […] The esophagus of a rat was extirpated and freed from the outer tunica propria to obtain the muscular layer of mucosa. […] A load of 0.5 g was applied to each sample and the reaction was recorded isometrically. 1 μM of carbachol was added to each sample to cause contraction, followed by the cumulative addition thereto of a solution of a test compound. The effect of the test compound was determined as the ratio (%) of relaxation based on the maximum contraction caused by carbachol.

[2] = tested on: cisplatin-induced vomiting; experiment: Activity against cisplatin-induced vomiting of beagle; format: in vivo; conditions: through the vein of forefoot, one hour after 3 mg/kg cisplatin, 5-hour period
Method: [Experimental Example 2] Activity against cisplatin-induced vomiting of beagle
Beagles weighing 7 to 12 kg were used. 3 mg/kg of cisplatin (a product of Sigma) (1 ml/kg of physiological saline) was administered to each beagle through the vein of one of its forefeet. One hour after the administration, physiological saline (0.2 ml/kg) was administered to a control group of beagles and a solution of a test compound in physiological saline was administered to a test group of beagles, each through the vein of the other forefoot. The frequency of vomiting observed over a 5-hour period from the administration of cisplatin was recorded and the inhibitory ratio of the test compound was calculated according to the following formula.

[3] = guinea pig nonterminal ileum, read-out: pA2 (converted)
[4] = 50% relaxation of maximum contraction caused by 1 μM carbachol, cumulative addition, 37° C., read-out: Effect of relaxing the muscular layer of esophageal mucosa of rat EC50
[5] = pA2, guinea pig nonterminal ileum

T2 sequence (Q62758 whole entry): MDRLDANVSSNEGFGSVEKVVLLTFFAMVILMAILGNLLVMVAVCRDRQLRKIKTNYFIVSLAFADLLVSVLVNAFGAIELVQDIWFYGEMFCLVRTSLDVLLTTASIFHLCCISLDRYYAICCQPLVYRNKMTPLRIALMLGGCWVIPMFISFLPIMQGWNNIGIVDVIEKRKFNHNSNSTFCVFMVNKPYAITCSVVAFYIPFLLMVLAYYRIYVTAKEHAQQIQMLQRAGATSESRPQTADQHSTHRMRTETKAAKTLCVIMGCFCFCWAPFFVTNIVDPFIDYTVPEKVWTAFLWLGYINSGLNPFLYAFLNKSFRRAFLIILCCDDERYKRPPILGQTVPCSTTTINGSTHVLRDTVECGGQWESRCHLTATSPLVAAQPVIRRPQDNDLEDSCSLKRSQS

| Compound | Percentage increment of gastric emptying function (%) ([1]; 0.03 mg/kg) | Percentage increment of gastric emptying function (%) ([1]; 0.1 mg/kg) | Percentage increment of gastric emptying function (%) ([1]; 0.3 mg/kg) | EC50 (serotonin 4; [4]) [nM] | also measured |
| --- | --- | --- | --- | --- | --- |
| CC#C[C@H](C)Oc1cc(N)c(Cl)cc1C(=O)NC1CCN2CCCC1C2 (single isomer, unassigned) [31 fraction 1] | 0.8 | 0.8 | 14.1 | 44 | Kb (serotonin 3; [3]): 63.1 nM |
| CC#C[C@H](C)Oc1cc(N)c(Cl)cc1C(=O)NC1C2CCC1CN(C)C2 (stereo partly drawn) [Example 35, (S)-N-(3-Methyl-3-azabicyclo[3.2.1]oct-8α-yl) -4-amino-5-chloro-2-(1-methyl-2-butynyl)oxybenzamide hydrochloride] |  |  |  | 2000 |  |
| CC#C[C@H](C)Oc1cc(N)c(Cl)cc1C(=O)NC1CCN2CCOC1C2 (stereo partly drawn) [Example 15, N-(4-Oxa-1-azabicyclo[3.3.1]non-6α-yl)-4-amino-5-chloro-2-((S)-1-methyl-2-butynyl/oxybenzamide hydrochloride] |  | 24.6 | 30.6 | 35 |  |
| CC#C[C@H](C)Oc1cc(N)c(Cl)cc1C(=O)NC1CC2CCCC(C1)N2C (some centres unmarked) [Example 4, hydrochloride] |  |  |  | 1300 |  |
| CC#C[C@H](C)Oc1cc(N)c(Cl)cc1C(=O)NC1CC2CN(C)CC(C1)N2C (stereo partly drawn) [Example 19, (S)-N-(3,9-Dimethyl-3,9-diazabicyclo[3.3.1]non-7α-yl)-4-amino-5-chloro-2-(1-methyl-2-butynyl/oxybenzamidedihydrochloride] |  |  |  | > 10000 |  |
| CC#C[C@H](C)Oc1cc(N)c(Cl)cc1C(=O)NC1CCC2CCC1N2C (single isomer, unassigned) [53 fraction 2-1] | 22.2 | 26.7 | 29.0 | 300 | Kb (serotonin 3; [5]): 2.51 nM; Percentage increment of gastric emptying function (%) ([1]; 0.01 mg/kg): 14.4% |
| CC#C[C@H](C)Oc1cc(N)c(Cl)cc1C(=O)NC1CC2COCC(C1)N2C (some centres unmarked) [Example 2] | 19.7 | 19.8 | 30.6 |  | Inhibitory ratio against cisplatin-induced vomiting (%) ([2]; 0.03 mg/kg): 14%; Inhibitory ratio against cisplatin-induced vomiting (%) ([2]; 0.1 mg/kg): 53%; Percentage increment of gastric emptying function (%) ([1]; 0.01 mg/kg): 20.5%; EC50 (serotonin 4): 82 nM |
| CC#C[C@H](C)Oc1cc(N)c(Cl)cc1C(=O)NC1CC2CC(OC)C(C1)N2C (single isomer, unassigned) [28 fraction 1] |  |  |  | > 10000 |  |
| CC#C[C@H](C)Oc1cc(N)c(Cl)cc1C(=O)NC1C2CN(C)CC1CN(C)C2 (stereo partly drawn) [Example 44, (S)-N-(3,7-Dimethyl-3,7-diazabicyclo[3.3.1]non-9-yl)-4-amino-5-chloro-2-(1-methyl-2-butynyl)oxybenzamide hydrochloride] |  |  |  |  | EC50 (serotonin 4): 110 nM |
| COc1cc(N)c(Cl)cc1C(=O)NC1CCN2CCCC1C2 (centres unmarked) [BRL 24924, Renzapride, reference compound] |  | 1.9 | 6.5 | 300 | Kb (serotonin 3; [3]): 251 nM; Inhibitory ratio against cisplatin-induced vomiting (%) ([2]; 0.03 mg/kg): 19%; Inhibitory ratio against cisplatin-induced vomiting (%) ([2]; 0.1 mg/kg): 61%; Percentage increment of gastric emptying function (%) ([1]; 1 mg/kg): 18.5% |
| CC#C[C@H](C)Oc1cc(N)c(Cl)cc1C(=O)NC1CC2CCC(C1)N2 (some centres unmarked) [Example 29] |  |  |  | > 10000 |  |
| CC#C[C@H](C)Oc1cc(N)c(Cl)cc1C(=O)NC1C2CC3CC1CN(C3)C2 (stereo partly drawn) [Example 55, (S)-N-(1-Azatricyclo[3.3.1.1^3,7]dec-10-yl)-4-amino-5-chloro-(1-methyl-2-butynyl)oxybenzamide hydrochloride] |  |  |  | 640 |  |
| CC#C[C@H](C)Oc1cc(N)c(Cl)cc1C(=O)NC1CCN2CCCC1C2 (stereo partly drawn) [Example 6, N-(1-Azabicyclo[3.3.1]non-4α-yl)-4-amino-5-chloro-2-((S-1-methyl-2-butynyl/oxybenzamide hydrochloride] |  |  |  | 110 | Kb (serotonin 3; [3]): 20 nM; Inhibitory ratio against cisplatin-induced vomiting (%) ([2]; 0.1 mg/kg): 77% |
| CC#C[C@H](C)Oc1cc(N)c(Cl)cc1C(=O)NC1CCN2CCCC1C2 (single isomer, unassigned) [31 fraction 2] | 24.6 | 25.8 | 33.2 | 190 | Kb (serotonin 3; [3]): 5.01 nM; Inhibitory ratio against cisplatin-induced vomiting (%) ([2]; 0.03 mg/kg): 63%; Inhibitory ratio against cisplatin-induced vomiting (%) ([2]; 0.1 mg/kg): 92%; Percentage increment of gastric emptying function (%) ([1]; 0.01 mg/kg): 4.5% |
| CC#C[C@H](C)Oc1cc(N)c(Cl)cc1C(=O)NC1CCN2CCOC1C2 (single isomer, unassigned) [20 fraction 2] | 14.0 | 23.3 | 21.8 | 33 | Kb (serotonin 3; [3]): 12.6 nM; Inhibitory ratio against cisplatin-induced vomiting (%) ([2]; 0.03 mg/kg): 14%; Inhibitory ratio against cisplatin-induced vomiting (%) ([2]; 0.1 mg/kg): 24% |
| CC#CC(CCOCC)Oc1cc(N)c(Cl)cc1C(=O)NC1CC2CCC(C1)N2C (stereo not drawn) [Example 42, N-(8Methyl-8-azabicylo[3.2.1]oct-3α-yl)-4-amino-5-chloro-2-(1-ethoxyethyl-2-butynyl]oxybenzamide hydrochloride] |  |  |  | 6200 |  |
| CC#C[C@H](C)Oc1cc(N)c(Cl)cc1C(=O)NC1CC2CC(OCC)CC(C1)N2C (stereo partly drawn) [Example 50, (S)-N-(3-Ethoxy-9-methyl-9-azabicyclo[3.3.1]-1non-9α- or 9β-yl)-4-amino-5-chloro-2-(1-methyl-2-butynyl)oxybenzamide hydrochloride] |  |  |  | > 10000 |  |
| CC#C[C@H](C)Oc1cc(N)c(Cl)cc1C(=O)NC1CCC2CCC1N2C (single isomer, unassigned) [53 fraction 2-2] | 6.6 | 21.3 | 28.8 | 180 | Kb (serotonin 3; [5]): 12.6 nM |
| CC#C[C@H](C)Oc1cc(N)c(Cl)cc1C(=O)NC1CCC2CCC1N2C (single isomer, unassigned) [53 fraction 2] |  | 14.4 | 16.1 | 310 |  |
| CC#C[C@H](C)Oc1cc(N)c(Cl)cc1C(=O)NC1CC2CC(OC)C(C1)N2C (single isomer, unassigned) [28 fraction 2] |  |  |  | > 10000 |  |
| CC#C[C@H](C)Oc1cc(N)c(Cl)cc1C(=O)NC1CCN2CCOC1C2 (single isomer, unassigned) [20 fraction 1] | 8.9 | 22.9 | 11.5 | 60 | Kb (serotonin 3; [3]): 63.1 nM; Inhibitory ratio against cisplatin-induced vomiting (%) ([2]; 0.1 mg/kg): 22%; Percentage increment of gastric emptying function (%) ([1]; 0.01 mg/kg): 3.9% |
